Assay results from patent publication US11440923B2, “Substituted macrocyclic indole derivatives” (Bayer Aktiengesellschaft, priority 2017, dated 2022).
pEC50, pIC50: −log10 of the molar value. Counter-ions that a name gives are not always drawn. Like-named read-outs stand apart in the source and are kept apart here.

Tests used:
Assay type in all cases: cell-based
SUDHL5 cells [1] = test: Induction of caspase-3/7 activity in SUDHL5 cells (Assay 4)
Experimental: (§1) Induction of Caspase-3/7 Activity Upon Treatment of Cells with Selected Compounds
(§2) The BH3-domain of MCL-1 sequesters pro-apoptotic proteins, thereby inhibiting apoptosis. In contrast, MCL-1 inhibitors are expected to antagonize this effect leading to an increase in apoptosis, which can be determined by measuring the activity of caspase-3/7.
(§3) The activity of caspase-3/7 was determined in DLBCL (Diffuse large B-cell lymphoma) cell lines (SUDHL5 and SUDHL10) upon treatment with different compounds, using the Caspase-Glo® 3/7 reagent from Promega (G8092).
(§4) As a control, medium without cells was also added to the plate. Cells were incubated in a humidified incubator at 37° C. overnight.
(§5) Rim wells were excluded. The cells were incubated for 3 h hours in a humidified incubator at 37° C. After this incubation, 30 μL of Caspase-Glo® 3/7 reagent (Promega G8092) was added to each well using the Multidrop Combi Reagent Dispenser, followed by 1 h incubation at 37° C. Finally, luminescence was read at 0.1 ms, with a gain of 3000 using the PHERAstar FS microplate reader (BMG Labtech).
(§6) For the evaluation of the results, the background measured with “medium-only” was subtracted from all other values. Then, the values were normalized to DMSO-only treated cells (every value was divided by the mean of the DMSO control).

SUDHL10 cells [2] = test: Induction of caspase-3/7 activity in SUDHL10 cells (Assay 4)
Experimental: as §1, §2, §3, §4, §5, §6

SUDHL5 cells [3] = test: Antiproliferation assay SUDHL5 (Assay 7); details: 72 h, CellTiter-Glo, read-out: Antiproli SUDHL5 IC50 (median)
Experimental: (§7) Assessment of the Anti-Proliferative Effect of Compounds in Different Cell Lines
(§8) The impact of compounds on the proliferation of different cell lines was assessed using the CellTiter-Glo® Luminescent Cell Viability reagent from Promega (G7573).
(§9) In parallel, cells were plated in a reference (day 0) plate for time zero determination. Cells were incubated in a humidified incubator at 37° C. overnight.
(§10) Rim wells were excluded. The cells were incubated for 72 h hours in a humidified incubator at 37° C. The day 0 plate was measured by adding 30 μL/well of CTG solution (CellTiter-Glo® Luminescent Cell Viability reagent, Promega G7573) to time zero wells in the reference plate followed by a 10 minutes incubation and luminescence reading at 0.1 ms. using the PHERAstar FS microplate reader (BMG Labtech).
(§11) After 72 h incubation, the treated plates were measured in the same way as the day 0 plate mentioned above. The Bella DRC Master Sheet was used to calculate IC50s, with CI=day 0 values and C0=DMSO control values.

AMO-1 cells = test: Antiproliferation assay AMO-1 (Assay 7)
Experimental: as §7, §8, §9, §10, §11

HMC-1-8 cells = test: Antiproliferation assay HMC-1-8 (Assay 7)
Experimental: as §7, §8, §9, §10, §11

SUDHL5 cells [4] = test: Induction of cytotoxicity in SUDHL5 cells (Assay 6); details: 5 h, CellTiter-Glo, read-out: Cytotox SUDHL5 IC50 (median)
Experimental: (§12) Assay 6 Induction of Cytotoxicity Upon Treatment of Cells with Selected Compounds
(§13) In principle, compounds that induce apoptosis will concomitantly induce cell cytotoxicity. Therefore, cytotoxicity assays were run in parallel in SUDHL5 and SUDHL10 cells.
(§14) As a control, medium without cells was also added to the plate. Cells were incubated in a humidified incubator at 37° C. overnight. […] Rim wells were excluded. The cells were incubated for 5 h hours in a humidified incubator at 37° C. After this incubation, 30 μL of CellTiter-Glo® Luminescent Cell Viability reagent (Promega, G7573) was added to each well using the Multidrop Combi Reagent Dispenser, followed by 15 min incubation on a shaker at room temperature. Finally, luminescence was read at 0.1 ms, with a gain of 3000 using the PHERAstar FS microplate reader (BMG Labtech).

SUDHL10 cells [5] = test: Induction of cytotoxicity in SUDHL10 cells (Assay 6); details: 5 h, CellTiter-Glo; read-out: Cytotox SUDHL10 IC50 (median)
Experimental: as §12, §13, §14

[6] = caspase-3/7 induction, 3 h; read-out: Caspase SUDHL5 EC50 (median)
[7] = caspase-3/7 induction, 3 h; read-out: Caspase SUDHL10 EC50 (median)
[8] = 72 h, CellTiter-Glo; read-out: Antiproli AMO-1 IC50 median
[9] = 72 h, CellTiter-Glo; read-out: Antiproli HMC-1-8 IC50 median

pEC50 (SUDHL5 cells [1]; [6]) | pEC50 (SUDHL10 cells [2]; [7]) | pIC50 (SUDHL5 cells [3]) | Compound | pIC50 (AMO-1 cells; [8]) | pIC50 (HMC-1-8 cells; [9]) | pIC50 (SUDHL5 cells [4]) | pIC50 (SUDHL10 cells [5]) | also measured
7.96 | 7.96 | 7.92 | CCc1c2c(nn1C)C(CCN1CCOCC1)N(C)CCCCn1c(C(=O)O)c(CCCOc3cccc4cc(F)ccc34)c3ccc(Cl)c-2c31 (centres unmarked) [Example 97, 4-chloro-3-ethyl-7-{3-[(6-fluoronaphthalen-1-yl)oxy]propyl}-2,14-dimethyl-15-[2-(morpholin-4-yl)ethyl]-10,11,12,13,14,15-hexahydro-2H-pyrazolo[3′,4′:8,9][1,6]diazacycloundecino[10,11,1-hi]indole-8-carboxylic Acid—N-ethylethanamine Salt] | 7.79 | 6.39 |  |  | 
 |  |  | CCc1c2c(nn1C)C(CCN1CCN(C)CC1)OCCCCn1c(C(=O)O)c(CCCOc3cccc4cc(F)ccc34)c3ccc(Cl)c-2c31 (single isomer, unassigned; stereoisomer 4) [Example 73, (−)-4-chloro-3-ethyl-7-{3-[(6-fluoronaphthalen-1-yl)oxy]propyl}-2-methyl-15-[2-(4-methylpiperazin-1-yl)ethyl]-2,10,11,12,13,15-hexahydropyrazolo[4′,3′:9,10][1,6]oxazacycloundecino[8,7,6-hi]indole-8-carboxylic Acid (Stereoisomer 4)] |  |  |  |  | pEC50 (SUDHL5 cells [1]; Homo sapiens, SU-DHL-5, 3 h, caspase-3/7 induction, 3 h; read-out: Caspase SUDHL5 EC50 (median)): 5.28; pEC50 (SUDHL10 cells [2]; Homo sapiens, SU-DHL10, 3 h, caspase-3/7 induction, 3 h; read-out: Caspase SUDHL10 EC50 (median)): 5.06; pIC50 (SUDHL5 cells [4]; Homo sapiens, SU-DHL-5, 5 h): 5.11; pIC50 (SUDHL5 cells [3]; Homo sapiens, SU-DHL-5, 72 h): 5.21; pIC50 (AMO-1 cells; Homo sapiens, AMO1, 72 h, 72 h, CellTiter-Glo; read-out: Antiproli AMO-1 IC50 median): 5.42; pIC50 (HMC-1-8 cells; 72 h, CellTiter-Glo, read-out: Antiproli HMC-1-8 IC50 median): < 4.48
 |  |  | CCc1c2c(nn1C)[C@@H](CCN1CCOCC1)OCCCCn1c(C(=O)O)c(CCCOc3cccc4cc(F)ccc34)c3ccc(Cl)c-2c31 [Example 48, (15R)-4-chloro-3-ethyl-7-{3-[(6-fluoronaphthalen-1-yl)oxy]propyl}-2-methyl-15-[2-(morpholin-4-yl)ethyl]-2,10,11,12,13,15-hexahydropyrazolo[4′,3′:9,10][1,6]oxazacycloundecino[8,7,6-hi]indole-8-carboxylic Acid—N-ethylethanamine Salt] |  |  | 6.68 | 6.70 | 
6.18 | 6.05 | 6.00 | CCc1c2c(nn1C)C(CCN1CCOCC1)OCC(F)(F)CCn1c(C(=O)O)c(CCCOc3cccc4cc(F)ccc34)c3ccc(Cl)c-2c31 (single isomer, unassigned; (-)) [Example 91, (−)-4-chloro-3-ethyl-12,12-difluoro-7-{3-[(6-fluoronaphthalen-1-yl)oxy]propyl}-2-methyl-15-[2-(morpholin-4-yl)ethyl]-2,10,11,12,13,15-hexahydropyrazolo[4′,3′:9,10][1,6]oxazacycloundecino[8,7,6-hi]indole-8-carboxylic Acid] | 6.14 | 5.21 | 6.10 |  | 
 |  |  | CCc1c2c(nn1C)C(CCN1CCOCC1)OCCCCn1c(C(=O)O)c(CCCOc3cccc4cc(F)ccc34)c3ccc(Cl)c-2c31 (single isomer, unassigned; enantiomer 1) [Example 23, (+)-4-chloro-3-ethyl-7-{3-[(6-fluoronaphthalen-1-yl)oxy]propyl}-2-methyl-15-[2-(morpholin-4-yl)ethyl]-2,10,11,12,13,15-hexahydropyrazolo[4′,3′:9,10][1,6]oxazacycloundecino[8,7,6-hi]indole-8-carboxylic Acid—N-ethylethanamine (Enantiomer 1)] |  |  | 8.11 | 8.01 | 
7.00 | 6.85 | 6.70 | CCc1c2c(nn1C)C(CCN1CCOCC1)OCC(F)(F)CCn1c(C(=O)O)c(CCCOc3cccc4cc(F)ccc34)c3ccc(Cl)c-2c31 (centres unmarked) [Example 86, 4-chloro-3-ethyl-12,12-difluoro-7-{3-[(6-fluoronaphthalen-1-yl)oxy]propyl}-2-methyl-15-[2-(morpholin-4-yl)ethyl]-2,10,11,12,13,15-hexahydropyrazolo[4′,3′:9,10][1,6]oxazacycloundecino[8,7,6-hi]indole-8-carboxylic Acid] | 6.71 | 5.80 | 6.82 |  | 
 |  |  | CCc1c2c(nn1C)C(CCN1CCN(C)CC1)OCCCCn1c(C(=O)O)c(CCCOc3cccc4cc(F)ccc34)c3ccc(Cl)c-2c31 (single isomer, unassigned; stereoisomer 3) [Example 72, (−)-4-chloro-3-ethyl-7-{3-[(6-fluoronaphthalen-1-yl)oxy]propyl}-2-methyl-15-[2-(4-methylpiperazin-1-yl)ethyl]-2,10,11,12,13,15-hexahydropyrazolo[4′,3′:9,10][1,6]oxazacycloundecino[8,7,6-hi]indole-8-carboxylic Acid—N-ethylethanamine Salt (Stereoisomer 3)] |  |  | 7.02 |  | pEC50 (SUDHL5 cells [1]; read-out: Caspase SUDHL5 EC50 (median); caspase-3/7 induction, 3 h): 7.13; pEC50 (SUDHL10 cells [2]; read-out: Caspase SUDHL10 EC50 (median); caspase-3/7 induction, 3 h): 7.27; pIC50 (AMO-1 cells; read-out: Antiproli AMO-1 IC50 median; 72 h, CellTiter-Glo): 6.97; pIC50 (HMC-1-8 cells; read-out: Antiproli HMC-1-8 IC50 median; 72 h, CellTiter-Glo): 5.64
7.52 | 7.52 | 7.44 | CCc1c2c(nn1C)C(CCN1CCOCC1)OCC(F)(F)CCn1c(C(=O)O)c(CCCOc3cccc4cc(F)ccc34)c3ccc(Cl)c-2c31 (centres unmarked) [Example 89, 4-chloro-3-ethyl-12,12-difluoro-7-{3-[(6-fluoronaphthalen-1-yl)oxy]propyl}-2-methyl-15-[2-(morpholin-4-yl)ethyl]-2,10,11,12,13,15-hexahydropyrazolo[4′,3′:9,10][1,6]oxazacycloundecino[8,7,6-hi]indole-8-carboxylic Acid] | 7.53 | 6.12 |  |  | 
7.72 | 7.55 | 7.52 | CCc1c2c(nn1C)C(CCN1CCOCC1)N(C)CCCCn1c(C(=O)O)c(CCCOc3cccc4cc(F)ccc34)c3ccc(Cl)c-2c31 (racemic) [Example 96, (rac)-4-chloro-3-ethyl-7-{3-[(6-fluoro-1-naphthyl)oxy]propyl}-2,14-dimethyl-15-(rac)-[2-(morpholin-4-yl)ethyl]-10,11,12,13,14,15-hexahydro-2H-pyrazolo[3′,4′:8,9][1,6]diazacycloundecino[10,11,1-hi]indole-8-carboxylic Acid] |  | 6.14 | 7.60 |  | 
 |  |  | CCc1c2c(nn1C)C(CCN1CCOCC1)OCCCCn1c(C(=O)O)c(CCCOc3cccc4cc(F)ccc34)c3ccc(Cl)c-2c31 (single isomer, unassigned; enantiomer 2) [Example 24, (−)-4-chloro-3-ethyl-7-{3-[(6-fluoronaphthalen-1-yl)oxy]propyl}-2-methyl-15-[2-(morpholin-4-yl)ethyl]-2,10,11,12,13,15-hexahydropyrazolo[4′,3′:9,10][1,6]oxazacycloundecino[8,7,6-hi]indole-8-carboxylic acid—N-ethylethanamine (Enantiomer 2)] |  |  | 5.77 | 5.18 | 
